The source of these data is ChEMBL document CHEMBL5108024, “New C-6 functionalized quinoline NorA inhibitors strongly synergize with ciprofloxacin against planktonic and biofilm growing resistant Staphylococcus aureus strains” (Eur J Med Chem, 2022).

The subject of data set [1] is Staphylococcus aureus. Briefly: Inhibition of EtBr efflux in ciprofloxacin-resistant Staphylococcus aureus 1199B overexpressing norA and harboring A116E grlA mutant assessed as reduction in fluorescence intensity at 50 uM measured for 5 mins by microplate reader analysis relative to control. Format: functional.
Data set [2] deals with Staphylococcus aureus. As to the kind of experiment: Antibacterial activity against ciprofloxacin-resistant Staphylococcus aureus 1199B overexpressing norA and harboring A116E grlA mutant assessed as inhibition of bacterial growth by broth microdilution method. Format: functional.
Data set [3] has as its system Staphylococcus aureus. Briefly: Inhibition of EtBr efflux in ciprofloxacin-resistant Staphylococcus aureus 1199B overexpressing norA and harboring A116E grlA mutant assessed as reduction in fluorescence intensity at 10 uM measured for 5 mins by microplate reader analysis relative to control. Format: functional.
Data set [4] concerns Staphylococcus aureus. Briefly: Synergistic antibiofilm activity against wild type Staphylococcus aureus 1199 assessed as biofilm eradication by measuring ciprofloxacin MBEC at 3.13 ug/ml incubated for 24 hrs by Calgary biofilm device assay. The data set is classed as functional. Particulars: dose 3.13 µg/ml.
A short description of data set [5]: Cytotoxicity against human A549 cells assessed as cell viability at 3.13 ug/ml incubated for 24 hrs by MTT assay relative to control. Format: toxicity, cell-based. To be noted: at 3.13 µg/mL, read-out: Activity. Background: Tetrazolium assays rely on reduction of a dye to a coloured formazan, in cell work by metabolically active cells.
Data set [6] relates to Staphylococcus aureus. As to the kind of experiment: Synergistic antibiofilm activity against wild type Staphylococcus aureus 1199 assessed as biofilm eradication by measuring fold reduction in ciprofloxacin MBEC at 3.13 ug/ml incubated for 24 hrs by Calgary biofilm device assay. The data set is classed as functional. Particulars: dose 3.13 µg/ml.
Data set [7] in a line: Cytotoxicity against human A549 cells assessed as cell viability at 12.5 ug/ml incubated for 24 hrs by MTT assay relative to control. The data set is classed as toxicity, cell-based. To be noted: at 12.5 µg/mL, read-out: Activity.
Data set [8] is described as follows: Cytotoxicity against human THP-1 cells assessed as cell viability at 3.13 ug/ml incubated for 24 hrs by MTT assay relative to control. Format: toxicity, cell-based. To be noted: at 3.13 µg/mL, read-out: Activity.
The nature of data set [9]: Cytotoxicity against human THP-1 cells assessed as cell viability incubated for 24 hrs by MTT assay. Format: toxicity, cell-based.
The nature of data set [10]: Cytotoxicity against human THP-1 cells assessed as cell viability at 12.5 ug/ml incubated for 24 hrs by MTT assay relative to control. Format: toxicity, cell-based. Particulars: at 12.5 µg/mL, read-out: Activity.
Data set [11] concerns Staphylococcus aureus. As to the kind of experiment: Synergistic antibacterial activity against Staphylococcus aureus 1199B overexpressing norA and harboring A116E grlA mutant assessed as eight fold minimum potentiating concentration incubated in presence of ciprofloxacin by checkerboard assay. The data set is classed as functional.
Data set [12] deals with Staphylococcus aureus. Briefly: Synergistic antibacterial activity against ciprofloxacin-resistant Staphylococcus aureus 1199B overexpressing norA and harboring A116E grlA mutant assessed as fold reduction in ciprofloxacin MIC at 6.25 uM by broth microdilution method. Format: functional.
Data set [13] concerns Staphylococcus aureus. As to the kind of experiment: Synergistic antibiofilm activity against Staphylococcus aureus 1199B overexpressing norA and harboring A116E grlA mutant assessed as biofilm eradication by measuring fold reduction in ciprofloxacin MBEC at 3.13 ug/ml incubated for 24 hrs by Calgary biofilm device assay. The data set is classed as functional. To be noted: dose 3.13 µg/ml.

Data set [14] concerns Staphylococcus aureus. As to the kind of experiment: Synergistic antibiofilm activity against Staphylococcus aureus 1199B overexpressing norA and harboring A116E grlA mutant assessed as biofilm eradication by measuring ciprofloxacin MBEC at 3.13 ug/ml incubated for 24 hrs by Calgary biofilm device assay. Format: functional. To be noted: dose 3.13 µg/ml.
Data set [15] relates to Staphylococcus aureus. As to the kind of experiment: Antibacterial activity against ciprofloxacin-susceptible wild type Staphylococcus aureus 1199 assessed as inhibition of bacterial growth by broth microdilution method. The data set is classed as functional. For orientation: Broth dilution looks for growth in wells or tubes with falling amounts of substance.
For data set [16], the system named is Staphylococcus aureus. As to the kind of experiment: Synergistic antibacterial activity against Staphylococcus aureus K2378 overexpressing norA assessed as fold reduction in ciprofloxacin MIC at 0.2 to 12.5 ug/ml by checkerboard assay. The data set is classed as functional. Particulars: dose 0.2-12.5 µg/ml.
The test system of data set [17] is Staphylococcus aureus. As to the kind of experiment: Antibacterial activity against Staphylococcus aureus K2378 harbouring norA promoting and coding region assessed as inhibition of bacterial growth by broth microdilution method. Format: functional.
In data set [18] the test system is Staphylococcus aureus. Briefly: Antibacterial activity against norA deleted Staphylococcus aureus K1902 assessed as inhibition of bacterial growth by broth microdilution method. Format: functional.

Values joined by “and” are separate entries in the source; they are usually repeats but may differ in a detail not shown here. Equal values may be shown once. Some results are limits rather than exact numbers.

A word on the inhibition: it is the share of the control response that was lost under treatment. By MIC is commonly meant the least concentration at which growth counts as inhibited. For `CCCOc1ccc(-c2cc(OCCN3CCCCCC3)c3cc(C#N)ccc3n2)cc1`, the inhibition with Staphylococcus aureus [1] was 84.2%; with Staphylococcus aureus [3], 86.8%. Further, the MIC in the data set with Staphylococcus aureus [2] was above 582 µM.
Take `CCCOc1ccc(-c2cc(OCCN(CC)CC)c3cc(OC(F)(F)F)ccc3n2)cc1`: the inhibition came to 83% with Staphylococcus aureus [1] and 69.2% in the data set with Staphylococcus aureus [3]. The MIC in the data set with Staphylococcus aureus [2] is above 541 µM.
With `CCCOc1ccc(-c2cc(OCCN3CCCCCC3)c3cc(OC(F)F)ccc3n2)cc1`, in the data set on Staphylococcus aureus [1], the inhibition is 70.7%.
Turning to `CCCOc1ccc(-c2cc(OCCN3CCCCCC3)c3cc(OC(F)(F)F)ccc3n2)cc1`, the inhibition in the data set with Staphylococcus aureus [1] was determined as 84.9%; in the data set with Staphylococcus aureus [3], 70.4%. The MIC with Staphylococcus aureus [2] is above 512 µM.
On to `CCCOc1ccc(-c2cc(OCCN(CC)CC)c3cc(OCCC)ccc3n2)cc1`, for which the inhibition in the data set on Staphylococcus aureus [1] worked out at 67.1%.
`CCCOc1ccc(-c2cc(OCCN(CC)CC)c3cc(Br)ccc3n2)cc1`: the inhibition with Staphylococcus aureus [1] was 63.4%.
For the compound `CCCOc1ccc(-c2cc(OCCN3CCCCC3)c3cc(Br)ccc3n2)cc1`, the inhibition with Staphylococcus aureus [1] is 71.6%.
As for `CCCOc1ccc(-c2cc(OCCN3CCCCCC3)c3cc(Oc4ccccc4)ccc3n2)cc1`, the inhibition in the data set with Staphylococcus aureus [1] was determined as 83%; with Staphylococcus aureus [3], 66.8%. For the same compound, the MIC with Staphylococcus aureus [2] was above 503 µM.
`CCCOc1ccc(-c2cc(OCCN(CC)CC)c3cc(C(F)(F)F)ccc3n2)cc1`: the inhibition in the data set on Staphylococcus aureus [1] was found to be 73.5%.
For orientation: CC50 means the concentration giving 50% cytotoxicity. As to `CCCOc1ccc(-c2cc(OCCN3CCCCCC3)c3cc(C(F)(F)F)ccc3n2)cc1`, the MBEC is 0.07 µg/mL in the data set with Staphylococcus aureus [4] and 0.63 µg/mL in the data set with Staphylococcus aureus [14]. The viability at 24 h, 3.13 ug/ml in data set [5] is 100%; in data set [8], 65.4%. In addition, the inhibition with Staphylococcus aureus [1] was 85.7%; with Staphylococcus aureus [3], 65.6%. Besides, the MIC with Staphylococcus aureus [2] is > 50 µg/mL and > 529 µM; with Staphylococcus aureus [15], above 50 µg/mL; in the data set with Staphylococcus aureus [17], above 50 µg/mL; with Staphylococcus aureus [18], above 50 µg/mL. In addition, the “fold change (FC)” value was 286 in the data set with Staphylococcus aureus [6], “>=8” in the data set on Staphylococcus aureus [12], 512 in the data set with Staphylococcus aureus [13] and 4 with Staphylococcus aureus [16]. For the same compound, the viability at 24 h, 12.5 ug/ml in data set [7] stood at 77.1%; in data set [10], 27%. Besides, the CC50 at 24 h in [9] is above 3.13 µg/mL. For the same compound, the MPC in the data set on Staphylococcus aureus [11] is 1.56 µg/mL.
In the case of `CCCOc1ccc(-c2cc(OCCN3CCCCC3)c3cc(-c4ccccc4)ccc3n2)cc1`, the inhibition was 80.6% in the data set with Staphylococcus aureus [1] and 41.9% in the data set on Staphylococcus aureus [3].
As for `CCCOc1ccc(-c2cc(OCCN3CCCCC3)c3cc(NCc4ccccc4)ccc3n2)cc1`, the inhibition in the data set with Staphylococcus aureus [1] was determined as 40.6%.
In the case of `CCCOc1ccc(-c2cc(OCCN3CCCCCC3)c3cc(Br)ccc3n2)cc1`, in the data set on Staphylococcus aureus [1], the inhibition came out at 76.4%.
Same read-out and setting: with `CCCOc1ccc(-c2cc(OCCN(CC)CC)c3cc(OC(F)F)ccc3n2)cc1` the figure was 71.9%.
Regarding `CCCOc1ccc(-c2cc(OCCN3CCCCCC3)c3cc(SC)ccc3n2)cc1`, the MBEC in the data set with Staphylococcus aureus [4] was 0.07 µg/mL; with Staphylococcus aureus [14], 1.25 µg/mL. Further, the viability at 24 h, 3.13 ug/ml came out at 100% in data set [5] and 68.8% in data set [8]. Further, the inhibition in the data set with Staphylococcus aureus [1] amounted to 81.2%; with Staphylococcus aureus [3] it was 81.1%. Further, the minimum inhibitory concentration (MIC) with Staphylococcus aureus [2] was > 50 µg/mL and 69.5 µM; in the data set with Staphylococcus aureus [15], above 50 µg/mL; in the data set with Staphylococcus aureus [17], above 50 µg/mL; with Staphylococcus aureus [18], above 50 µg/mL. The “fold change (FC)” value with Staphylococcus aureus [6] was found to be 286; in the data set on Staphylococcus aureus [12], 8; with Staphylococcus aureus [13], 512; with Staphylococcus aureus [16] it was 4. In addition, the viability at 24 h, 12.5 ug/ml in [7] was determined as 100%; in [10], 19.9%. Further, in data set [9], the CC50 at 24 h was above 3.13 µg/mL. Also, in the data set with Staphylococcus aureus [11], the MPC came to 1.56 µg/mL.
On to `CCCOc1ccc(-c2cc(OCCN3CCCCC3)c3cc(OC(F)(F)F)ccc3n2)cc1`, for which the inhibition was 81.2% in the data set on Staphylococcus aureus [1] and 86.9% in the data set with Staphylococcus aureus [3]. Moreover, the MIC in the data set with Staphylococcus aureus [2] was above 529 µM.
As for `CCCOc1ccc(-c2cc(OCCN3CCCCC3)c3cc(C(F)(F)F)ccc3n2)cc1`, the MBEC with Staphylococcus aureus [4] was 0.07 µg/mL; in the data set on Staphylococcus aureus [14] it was above 50 µg/mL. The values for the inhibition with Staphylococcus aureus [1] and in the data set with Staphylococcus aureus [3] were 87.4% and 70.1%, respectively. Further, the MIC with Staphylococcus aureus [2] was > 50 µg/mL and > 545 µM; in the data set on Staphylococcus aureus [15], above 50 µg/mL. For the same compound, the MPC in the data set on Staphylococcus aureus [11] is 3.13 µg/mL. Besides, the “fold change (FC)” value in the data set with Staphylococcus aureus [12] came out at 8.
With `CCCOc1ccc(-c2cc(OCCN3CCCCC3)c3cc(SC)ccc3n2)cc1`, the inhibition in the data set with Staphylococcus aureus [1] worked out at 79.9%; with Staphylococcus aureus [3] it was 80.2%. Moreover, the MIC with Staphylococcus aureus [2] is > 50 µg/mL and 71.7 µM; with Staphylococcus aureus [15] it was above 50 µg/mL. Further, in the data set on Staphylococcus aureus [11], the MPC came to 6.25 µg/mL. Also, the “fold change (FC)” value in the data set on Staphylococcus aureus [12] is listed as “>=8”.
With `CCCOc1ccc(-c2cc(OCCN3CCCCC3)c3cc(C#N)ccc3n2)cc1`, in the data set on Staphylococcus aureus [1], the inhibition was found to be 77.8%.
Same read-out and setting: the result for `CCCOc1ccc(-c2cc(OCCN(CC)CC)c3cc(SC)ccc3n2)cc1` reads 53.3%.
Take `CCCOc1ccc(-c2cc(OCCN3CCCCC3)c3cc(OCCC)ccc3n2)cc1`: the inhibition in the data set with Staphylococcus aureus [1] turned out to be 73.9%.
As to `CCCOc1ccc(-c2cc(OCCN3CCCCC3)c3cc(OC(C)C)ccc3n2)cc1`, in the data set with Staphylococcus aureus [1], the inhibition worked out at 65.3%.
Still for that read-out and setting: with `CCCOc1ccc(-c2cc(OCCN(CC)CC)c3cc(OC(C)C)ccc3n2)cc1` the figure was 43.7%.
`CCCOc1ccc(-c2cc(OCCN3CCCCC3)c3cc(Oc4ccccc4)ccc3n2)cc1`: the MBEC with Staphylococcus aureus [4] came to 0.07 µg/mL; in the data set on Staphylococcus aureus [14], 1.25 µg/mL. For the same compound, the viability at 24 h, 3.13 ug/ml came to 100% in data set [5] and 87.9% in data set [8]. Moreover, the inhibition amounted to 84.1% with Staphylococcus aureus [1] and 65.6% in the data set on Staphylococcus aureus [3]. In addition, the MIC in the data set on Staphylococcus aureus [2] is > 50 µg/mL and > 518 µM; with Staphylococcus aureus [15], above 50 µg/mL; in the data set with Staphylococcus aureus [17], above 50 µg/mL; with Staphylococcus aureus [18] it was above 50 µg/mL. Also, the “fold change (FC)” value in the data set with Staphylococcus aureus [6] is 286; in the data set with Staphylococcus aureus [12], 8; in the data set with Staphylococcus aureus [13] it was 512; in the data set with Staphylococcus aureus [16], 4. For the same compound, the figures for the viability at 24 h, 12.5 ug/ml in data set [7] and in data set [10] were 100% and 21.8%, respectively. For the same compound, the CC50 at 24 h in [9] is above 3.13 µg/mL. Also, the MPC with Staphylococcus aureus [11] amounted to 1.56 µg/mL.
For the compound `CCCOc1ccc(-c2cc(OCCN3CCCCCC3)c3cc(OC(C)C)ccc3n2)cc1`, the inhibition in the data set on Staphylococcus aureus [1] amounted to 75.3%.
For the compound `CCCOc1ccc(-c2cc(OCCN(CC)CC)c3cc(C#N)ccc3n2)cc1`, in the data set on Staphylococcus aureus [1], the inhibition came to 77.8%.
